Measured values taken from patent US10772847B1, “Combinational fendiline formulations and uses thereof” (UNIVERSITY OF SOUTH FLORIDA, priority 2016, dated 2020).

How the values were obtained:
ADAM10 = details: shown recently (introduction); cited from earlier work
P-Aurora ABC = test: Fluorescent microscopy of p-Aurora ABC in CD18 cells; format: cell-based; details: about 24 hours of treatment, FIGS. 26A-26C
Protocol: FIGS. 26A-26C show fluorescent microscopic images of CD18 cells treated with fendiline or Tivantinib as compared to untreated after about 24 hours of treatment and staining with antibodies against p-Aurora ABC or a-tubulin and counterstained with Hoechst.

cancer cells = details: shown earlier (introduction); cited from earlier work

CC(NCCC(c1ccccc1)c1ccccc1)c1ccccc1 (stereo not drawn) [fendiline]
ADAM10 inhibition (ADAM10): inhibits | aurora ABC phosphorylation (P-Aurora ABC): inhibit | cytotoxicity in cancer cells (cancer cells): induces cytotoxicity
